In ChEMBL document CHEMBL5113522, “Discovery of CH7057288 as an Orally Bioavailable, Selective, and Potent pan-TRK Inhibitor” (J Med Chem, 2022):

Columns and labels:
[1] = Volume of distribution at steady state in Beagle dog at 1 mg/kg, iv by LC-MS analysis; format: ADME, organism-based, Canis lupus familiaris; conditions: in vivo, read-out: Vdss
[2] = biological target: High affinity nerve growth factor receptor (Homo sapiens, UniProt P04629); experiment: Inhibition of TRKA (unknown origin)
[3] = biological target: ALK tyrosine kinase receptor (Homo sapiens, UniProt Q9UM73); experiment: Inhibition of ALK (unknown origin)
[4] = biological target: Cyclin-dependent kinase 1 (Homo sapiens, UniProt P06493); experiment: Inhibition of CDK1 (unknown origin)
Sequence of Cyclin-dependent kinase 1 (P06493 whole entry): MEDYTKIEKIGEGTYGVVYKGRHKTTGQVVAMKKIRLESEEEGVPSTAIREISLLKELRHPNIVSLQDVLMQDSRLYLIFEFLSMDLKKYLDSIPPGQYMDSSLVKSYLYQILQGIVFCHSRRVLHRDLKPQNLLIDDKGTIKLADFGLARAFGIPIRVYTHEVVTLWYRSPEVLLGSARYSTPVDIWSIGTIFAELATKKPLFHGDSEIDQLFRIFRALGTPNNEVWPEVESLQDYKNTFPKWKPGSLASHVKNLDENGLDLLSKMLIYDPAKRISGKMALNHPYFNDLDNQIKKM

[5] = Volume of distribution at steady state in Wistar Hannover rat at 1 mg/kg, iv by LC-MS analysis; format: ADME, organism-based; conditions: in vivo, read-out: Vdss
NIH3T3 [6] = experiment: Antitumor activity against mouse NIH3T3 cells implanted in mouse assessed as tumor growth inhibition at 0.16 mg/kg, po administered once daily for 11 days and measured on day 12 relative to control; format: functional; conditions: NIH3T3, 288 h, time 12 day, read-out: TGI
Insulin receptor = Insulin receptor (Homo sapiens, UniProt P06213); experiment: Inhibition of INSR (unknown origin)
[7] = Cmax in Beagle dog at 1 mg/kg, po by LC-MS analysis; format: ADME, organism-based, Canis lupus familiaris; design: dose 1 mg/kg, route po; conditions: in vivo
[8] = biological target: Receptor tyrosine-protein kinase erbB-2 (Homo sapiens, UniProt P04626); experiment: Inhibition of HER2 (unknown origin)
[9] = biological target: Fibroblast growth factor receptor 2 (Homo sapiens, UniProt P21802); experiment: Inhibition of FGFR2 (unknown origin)
[10] = biological target: BDNF/NT-3 growth factors receptor (Homo sapiens, UniProt Q16620); experiment: Inhibition of TRKB (unknown origin)
[11] = biological target: Proto-oncogene tyrosine-protein kinase Src (Homo sapiens, UniProt P12931); experiment: Inhibition of Src (unknown origin)
[12] = biological target: RAF proto-oncogene serine/threonine-protein kinase (Homo sapiens, UniProt P04049); experiment: Inhibition of RAF1 (unknown origin)
[13] = AUC in Beagle dog at 1 mg/kg, po by LC-MS analysis; format: ADME, organism-based, Canis lupus familiaris; design: dose 1 mg/kg, route po; conditions: in vivo
[14] = biological target: Tyrosine-protein kinase Lck (Homo sapiens, UniProt P06239); experiment: Inhibition of LCK (unknown origin)
[15] = biological target: Hepatocyte growth factor receptor (Homo sapiens, UniProt P08581); experiment: Inhibition of MET (unknown origin)
Sequence of Hepatocyte growth factor receptor (P08581 whole entry): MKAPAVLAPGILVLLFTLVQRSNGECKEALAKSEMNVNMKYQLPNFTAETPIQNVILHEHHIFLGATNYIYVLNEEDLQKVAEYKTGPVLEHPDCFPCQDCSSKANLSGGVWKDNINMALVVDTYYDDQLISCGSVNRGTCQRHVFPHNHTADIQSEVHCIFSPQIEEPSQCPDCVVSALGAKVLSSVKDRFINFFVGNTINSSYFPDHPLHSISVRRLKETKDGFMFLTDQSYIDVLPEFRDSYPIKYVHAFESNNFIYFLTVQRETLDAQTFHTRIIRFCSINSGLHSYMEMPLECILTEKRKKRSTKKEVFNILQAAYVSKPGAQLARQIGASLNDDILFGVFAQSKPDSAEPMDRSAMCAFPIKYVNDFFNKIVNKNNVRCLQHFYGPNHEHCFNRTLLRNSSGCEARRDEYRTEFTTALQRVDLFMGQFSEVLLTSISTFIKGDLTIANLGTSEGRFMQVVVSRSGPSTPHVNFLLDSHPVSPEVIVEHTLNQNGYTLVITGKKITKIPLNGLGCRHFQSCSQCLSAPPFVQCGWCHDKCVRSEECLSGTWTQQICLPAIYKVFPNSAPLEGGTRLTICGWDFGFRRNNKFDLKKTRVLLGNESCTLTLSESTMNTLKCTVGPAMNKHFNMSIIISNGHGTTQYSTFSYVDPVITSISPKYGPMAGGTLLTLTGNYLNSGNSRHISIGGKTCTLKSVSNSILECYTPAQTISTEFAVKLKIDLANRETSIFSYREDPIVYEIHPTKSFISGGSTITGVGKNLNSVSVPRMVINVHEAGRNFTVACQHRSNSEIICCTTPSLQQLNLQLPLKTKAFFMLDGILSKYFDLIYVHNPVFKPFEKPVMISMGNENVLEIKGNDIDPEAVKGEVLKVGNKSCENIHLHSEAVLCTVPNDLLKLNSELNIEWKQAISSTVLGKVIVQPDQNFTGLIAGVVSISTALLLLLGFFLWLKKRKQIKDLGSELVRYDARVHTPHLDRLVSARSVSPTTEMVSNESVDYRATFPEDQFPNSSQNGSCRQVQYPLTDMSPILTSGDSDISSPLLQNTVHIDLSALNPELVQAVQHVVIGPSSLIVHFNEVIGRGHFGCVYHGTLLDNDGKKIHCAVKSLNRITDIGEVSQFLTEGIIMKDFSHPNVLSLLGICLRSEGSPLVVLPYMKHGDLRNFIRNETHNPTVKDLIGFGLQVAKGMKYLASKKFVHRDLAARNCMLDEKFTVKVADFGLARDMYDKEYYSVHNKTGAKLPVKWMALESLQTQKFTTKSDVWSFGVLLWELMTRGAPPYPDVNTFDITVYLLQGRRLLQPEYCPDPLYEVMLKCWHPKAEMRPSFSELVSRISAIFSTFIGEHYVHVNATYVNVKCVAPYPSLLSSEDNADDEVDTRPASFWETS

[16] = biological target: Protein kinase C alpha type (Homo sapiens, UniProt P17252); experiment: Inhibition of PKCalpha (unknown origin)
NIH3T3 [17] = experiment: Antitumor activity against mouse NIH3T3 cells implanted in mouse assessed as tumor regression at 2.5 mg/kg, po administered once daily for 11 days and measured on day 12 relative to control; format: functional; conditions: time 12 day
[18] = Clearance in Beagle dog at 1 mg/kg, iv by LC-MS analysis; format: ADME, organism-based, Canis lupus familiaris; conditions: in vivo
[19] = Clearance in Wistar Hannover rat at 1 mg/kg, iv by LC-MS analysis; format: ADME, organism-based; conditions: in vivo
[20] = Toxicity in mouse assessed as body weight loss at 10 mg/kg, po administered once daily for 11 days and measured on day 12; format: organism-based; conditions: in vivo, 288 h, time 12 day
[21] = biological target: RAC-alpha serine/threonine-protein kinase (Homo sapiens, UniProt P31749); experiment: Inhibition of AKT1 (unknown origin)
CYP3A4 = CYP3A4 (Homo sapiens, UniProt P08684); experiment: Induction of CYP3A4 in human hepatocytes assessed as fold induction at 1 uM using testosterone as substrate preincubated with replacement of fresh medium containing compound every 24 hrs for 72 hrs followed by substrate addition and measured after 1 hr by LC-MS/MS analysis relative to control; format: ADME, cell-based, Hepatocyte; conditions: probe testosterone, time 73 hrs, read-out: FC
Sequence of CYP3A4 (P08684 whole entry): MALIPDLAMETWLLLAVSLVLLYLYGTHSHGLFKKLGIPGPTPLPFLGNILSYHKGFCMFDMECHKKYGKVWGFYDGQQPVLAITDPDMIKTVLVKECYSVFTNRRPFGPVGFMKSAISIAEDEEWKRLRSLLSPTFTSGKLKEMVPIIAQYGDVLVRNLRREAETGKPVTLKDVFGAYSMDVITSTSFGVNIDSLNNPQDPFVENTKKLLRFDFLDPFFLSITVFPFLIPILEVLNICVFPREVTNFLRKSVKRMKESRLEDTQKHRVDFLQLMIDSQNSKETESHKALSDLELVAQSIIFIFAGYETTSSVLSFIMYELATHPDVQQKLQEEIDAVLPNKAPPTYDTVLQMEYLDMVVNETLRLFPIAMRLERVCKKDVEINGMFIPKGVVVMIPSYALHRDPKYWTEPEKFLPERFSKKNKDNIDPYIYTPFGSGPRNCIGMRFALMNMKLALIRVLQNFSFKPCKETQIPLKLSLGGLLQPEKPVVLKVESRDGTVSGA

[22] = Half life in Wistar Hannover rat at 1 mg/kg, po by LC-MS analysis; format: ADME, organism-based; conditions: in vivo
[23] = biological target: Vascular endothelial growth factor receptor 2 (Homo sapiens, UniProt P35968); experiment: Inhibition of KDR (unknown origin)
[24] = Half life in Beagle dog at 1 mg/kg, po by LC-MS analysis; format: ADME, organism-based, Canis lupus familiaris; conditions: in vivo
[25] = biological target: Serine/threonine-protein kinase Chk1 (Homo sapiens, UniProt O14757); experiment: Inhibition of CHK1 (unknown origin)
NIH3T3 [26] = experiment: Antitumor activity against mouse NIH3T3 cells implanted in mouse assessed as tumor regression at 10 mg/kg, po administered once daily for 11 days and measured on day 12 relative to control; format: functional; conditions: time 12 day
NIH3T3 [27] = experiment: Antiproliferative activity against […] NIH3T3 cells expressing MPRIP-NTRK1 assessed as cell growth inhibition incubated for 4 to 7 days by CellTiter-Glo Luminescent Cell Viability Assay; format: functional, cell-based; conditions: Mus musculus
[28] = Oral bioavailability in Beagle dog at 1 mg/kg by LC-MS analysis; format: ADME, organism-based, Canis lupus familiaris; conditions: in vivo
[29] = Antitumor activity against human CUTO-3 cells xenografted in mouse assessed as tumor growth inhibition at 10 mg/kg, po administered once daily for 11 days and measured on day 12 relative to control; format: functional; conditions: CUTO-3, 288 h, time 12 day, read-out: TGI
[30] = AUC in Wistar Hannover rat at 1 mg/kg, po by LC-MS analysis; format: ADME, organism-based; design: dose 1 mg/kg, route po; conditions: in vivo
[31] = Half life in Wistar Hannover rat at 1 mg/kg, iv by LC-MS analysis; format: ADME, organism-based; conditions: in vivo
[32] = biological target: cAMP-dependent protein kinase (PKA) (Homo sapiens, UniProt P22694+P17612+P22612); experiment: Inhibition of PKA (unknown origin); format: protein assay
[33] = biological target: NT-3 growth factor receptor (Homo sapiens, UniProt Q16288); experiment: Inhibition of TRKC (unknown origin)
Sequence of NT-3 growth factor receptor (Q16288 whole entry): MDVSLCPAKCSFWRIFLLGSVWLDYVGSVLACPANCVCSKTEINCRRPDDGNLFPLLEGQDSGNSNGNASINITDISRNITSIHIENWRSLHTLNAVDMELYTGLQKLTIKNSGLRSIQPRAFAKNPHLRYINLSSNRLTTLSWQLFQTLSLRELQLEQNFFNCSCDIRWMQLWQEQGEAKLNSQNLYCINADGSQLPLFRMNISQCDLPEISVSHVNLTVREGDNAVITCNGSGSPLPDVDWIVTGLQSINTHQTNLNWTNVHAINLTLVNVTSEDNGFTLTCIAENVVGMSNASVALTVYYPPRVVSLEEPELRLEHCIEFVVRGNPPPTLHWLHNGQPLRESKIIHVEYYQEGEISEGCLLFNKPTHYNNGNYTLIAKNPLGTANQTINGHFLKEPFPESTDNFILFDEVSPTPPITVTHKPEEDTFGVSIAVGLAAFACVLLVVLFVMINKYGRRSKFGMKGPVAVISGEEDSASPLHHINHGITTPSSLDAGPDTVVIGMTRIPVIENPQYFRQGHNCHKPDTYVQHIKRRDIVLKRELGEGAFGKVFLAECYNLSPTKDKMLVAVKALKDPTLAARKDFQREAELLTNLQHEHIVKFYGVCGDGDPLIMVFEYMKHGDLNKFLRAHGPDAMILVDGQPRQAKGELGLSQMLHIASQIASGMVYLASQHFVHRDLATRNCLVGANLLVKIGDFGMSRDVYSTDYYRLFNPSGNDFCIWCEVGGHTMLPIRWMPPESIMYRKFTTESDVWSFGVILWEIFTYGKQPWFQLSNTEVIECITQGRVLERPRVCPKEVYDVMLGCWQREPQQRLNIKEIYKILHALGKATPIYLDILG

NIH3T3 [34] = experiment: Antitumor activity against mouse NIH3T3 cells implanted in mouse assessed as tumor growth inhibition at 0.63 mg/kg, po administered once daily for 11 days and measured on day 12 relative to control; format: functional; conditions: NIH3T3, 288 h, time 12 day, read-out: TGI
[35] = Oral bioavailability in Wistar Hannover rat at 1 mg/kg by LC-MS analysis; format: ADME, organism-based; conditions: in vivo
NIH3T3 [36] = experiment: Antitumor activity against mouse NIH3T3 cells implanted in mouse assessed as tumor growth inhibition at 2.5 mg/kg, po administered once daily for 11 days and measured on day 12 relative to control; format: functional; conditions: NIH3T3, 288 h, time 12 day, read-out: TGI
[37] = Half life in Beagle dog at 1 mg/kg, iv by LC-MS analysis; format: ADME, organism-based, Canis lupus familiaris; conditions: in vivo
NIH3T3 [38] = experiment: Antitumor activity against mouse NIH3T3 cells implanted in mouse assessed as tumor growth inhibition at 10 mg/kg, po administered once daily for 11 days and measured on day 12 relative to control; format: functional; conditions: NIH3T3, 288 h, time 12 day, read-out: TGI
[39] = biological target: Tyrosine-protein kinase JAK2 (Homo sapiens, UniProt O60674); experiment: Inhibition of JAK2 (unknown origin)
Sequence of Tyrosine-protein kinase JAK2 (O60674 whole entry): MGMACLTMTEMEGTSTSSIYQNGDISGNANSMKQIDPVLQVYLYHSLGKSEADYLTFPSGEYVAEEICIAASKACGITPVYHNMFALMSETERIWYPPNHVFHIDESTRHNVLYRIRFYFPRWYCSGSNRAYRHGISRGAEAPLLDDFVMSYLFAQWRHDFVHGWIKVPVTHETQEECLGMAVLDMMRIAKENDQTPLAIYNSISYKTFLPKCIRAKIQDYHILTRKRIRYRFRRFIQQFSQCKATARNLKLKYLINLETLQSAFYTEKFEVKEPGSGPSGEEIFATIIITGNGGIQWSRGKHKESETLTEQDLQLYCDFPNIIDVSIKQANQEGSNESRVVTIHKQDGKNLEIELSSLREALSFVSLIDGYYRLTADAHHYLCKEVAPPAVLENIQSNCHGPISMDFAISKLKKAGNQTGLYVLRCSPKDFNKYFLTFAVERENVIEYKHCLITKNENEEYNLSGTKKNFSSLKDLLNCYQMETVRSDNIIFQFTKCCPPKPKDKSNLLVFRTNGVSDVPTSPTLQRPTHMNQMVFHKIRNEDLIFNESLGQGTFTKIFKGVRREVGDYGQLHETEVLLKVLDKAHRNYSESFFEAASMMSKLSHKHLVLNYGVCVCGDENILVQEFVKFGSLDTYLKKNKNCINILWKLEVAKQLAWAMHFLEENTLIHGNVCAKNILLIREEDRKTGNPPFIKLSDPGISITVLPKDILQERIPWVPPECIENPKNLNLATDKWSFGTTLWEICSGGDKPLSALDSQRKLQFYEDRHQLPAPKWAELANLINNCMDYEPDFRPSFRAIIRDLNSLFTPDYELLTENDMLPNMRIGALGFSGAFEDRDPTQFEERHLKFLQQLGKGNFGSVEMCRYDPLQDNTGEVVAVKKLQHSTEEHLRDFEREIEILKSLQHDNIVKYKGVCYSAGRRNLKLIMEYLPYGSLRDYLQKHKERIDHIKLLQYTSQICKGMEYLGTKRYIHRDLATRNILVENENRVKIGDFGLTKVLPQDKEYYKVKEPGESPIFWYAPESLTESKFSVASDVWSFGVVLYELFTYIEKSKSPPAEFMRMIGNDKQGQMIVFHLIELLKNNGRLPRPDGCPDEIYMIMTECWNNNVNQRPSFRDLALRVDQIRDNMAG

[40] = Cmax in Wistar Hannover rat at 1 mg/kg, po by LC-MS analysis; format: ADME, organism-based; design: dose 1 mg/kg, route po; conditions: in vivo
[41] = biological target: Epidermal growth factor receptor (Homo sapiens, UniProt P00533); experiment: Inhibition of EGFR (unknown origin)

Molecule `Cc1cc(C(=O)NC(C)(C)C)cc(C#Cc2ccc3c4c(oc3c2)C(C)(C)c2cc(NS(C)(=O)=O)ccc2C4=O)n1` has a Vd [1] of 1.69 L/kg, an IC50 [2] of 0.0012 µM and an IC50 [3] of over 10 µM. The IC50 [4] was over 10 µM, the Vd [5] was 0.587 L/kg and the inhibition in vivo at 0.16 mg/kg (NIH3T3 [6]) was 14%. For the same molecule, the IC50 (Insulin receptor) was over 10 µM, the Cmax [7] was 763 ng/mL and the IC50 [8] was over 10 µM. The IC50 [9] was over 10 µM, the IC50 [10] was 0.002 µM and the IC50 [11] was over 10 µM. The IC50 [12] was over 10 µM, the AUC [13] was 11000 ng·h/mL and the IC50 [14] was 0.3 µM. It also gave an IC50 [15] of over 10 µM, an IC50 [16] of over 10 µM and an Activity (NIH3T3 [17]) of 26%. The clearance [18] was 1.48 mL/min/kg, the clearance [19] was 1.07 mL/min/kg and the Activity [20] was “Non-Toxic”. For the same molecule, the IC50 [21] was over 10 µM, the fold induction at 1 h, 1 µM (CYP3A4) was 3 and the half-life [22] was 9.01 h. It also gave an IC50 [23] of over 1 µM, a half-life [24] of 15.2 h and an IC50 [25] of over 10 µM. For the same molecule, the Activity (NIH3T3 [26]) was 72%, the IC50 (NIH3T3 [27]) was 0.0084 µM and the bioavailability [28] was 97.5%. For the same molecule, the inhibition in vivo at 10 mg/kg [29] was 171%, the AUC [30] was 5950 ng·h/mL and the half-life [31] was 7.49 h. It also gave an IC50 [32] of over 10 µM, an IC50 [33] of 0.0028 µM and an inhibition in vivo at 0.63 mg/kg (NIH3T3 [34]) of 16%. It also gave a bioavailability [35] of 38%, an inhibition in vivo at 2.5 mg/kg (NIH3T3 [36]) of 102% and a half-life [37] of 12.7 h. It also gave an inhibition in vivo at 10 mg/kg (NIH3T3 [38]) of 105%, an IC50 [39] of over 10 µM and a Cmax [40] of 581 ng/mL. For the same molecule, the IC50 [41] was over 10 µM.
